Marks after values point to notes of the source that are not given here.
Tests used:
[1] = system: E. coli; test: UV-visible bacterial assay (optical density at 570 nm); assay type: cell-based
[2] = system: E. coli; test: CFU-based bacterial assay; assay type: cell-based
Experimental: Each sample set was evaluated using at least one of the following assays: (1) a CFU-based bacterial assay; […] As explained above, following sample incubation the samples were evaluated for the level of bacterial growth using a CFU-based bacterial assay and/or a UV-visible bacterial assay. The CFU-based bacterial assay involves serially diluting samples by various dilution factors, plating the surface of pre-poured LB plates, and manually counting the resulting sample cultures to measure the level of growth based on log10 CFU/ml. CFU per ml were calculated by counting the number of colonies on the plate with growths ranging from 30 and 300, and then applying the equation (1): In this CFU-based bacterial assay, the levels of activity corresponding to the control samples (no E. coli) were set as the zero points.

Row | SMILES | Antibacterial potential category from OD at 570 nm [1] | 24 Hour log10 CFU/ml [2] [log10 CFU/ml] | UV-Vis Abs @ 570 nm (Optical Density (OD)) [1]
1 | O.O.O.O.O.O.O.O=S(=O)([O-])[O-].[Fe+2] [Example 20, iron (II) sulfate heptahydrate] | 1.172 ^s) (key: Complete Kill Candidate (<0.250); p: Inhibition-Kill Candidate (0.250-0.350); q: Inhibition Candidate (0.351-0.450); <10^8 Growth Candidate (0.451-1.250); Robust Growth Candidate (>1.251)) | 8.8 | –
2 | O.O.O.O.O.O.O.O=S(=O)([O-])[O-].[Fe+2] [Example 21, iron (II) sulfate heptahydrate] | 0.291 ^q) (key: Complete Kill Candidate (<0.250); p: Inhibition-Kill Candidate (0.250-0.350); q: Inhibition Candidate (0.351-0.450); <10^8 Growth Candidate (0.451-1.250); Robust Growth Candidate (>1.251)) | 0 | –
3 | O.O.O.O.O.O=S(=O)([O-])[O-].[Cu+2] [Example 22, copper (II) sulfate pentahydrate] | 0.734 ^r) (key: Complete Kill Candidate (<0.250); p: Inhibition-Kill Candidate (0.250-0.350); q: Inhibition Candidate (0.351-0.450); <10^8 Growth Candidate (0.451-1.250); Robust Growth Candidate (>1.251)) | 7.8 | 0.734 ^r)
4 | O.O.O.O.O.O=S(=O)([O-])[O-].[Cu+2] [Example 23, copper (II) sulfate pentahydrate] | – | 2.4 | –
5 | O.O.O.O.O.O=S(=O)([O-])[O-].[Cu+2] [Example 24, copper (II) sulfate pentahydrate] | 0.055 ^p) (key: Complete Kill Candidate (<0.250); p: Inhibition-Kill Candidate (0.250-0.350); q: Inhibition Candidate (0.351-0.450); <10^8 Growth Candidate (0.451-1.250); Robust Growth Candidate (>1.251)) | 0 | 0.055 ^p)
